Measured values as given in ChEMBL document CHEMBL4828717, “Synthetic cajaninstilbene acid derivatives eradicate methicillin-resistant Staphylococcus aureus persisters and biofilms” (Eur J Med Chem, 2021).

Legend:
Staphylococcus aureus [1] = experiment: Antibacterial activity against methicillin resistant Staphylococcus aureus ATCC 52056 assessed as reduction in microbial growth after 16 to 18 hrs by microbroth dilution method; type: functional; conditions: time 16-18 hrs
Staphylococcus aureus [2] = experiment: Antibacterial activity against methicillin resistant Staphylococcus aureus ATCC48706 assessed as reduction in microbial growth after 16 to 18 hrs by microbroth dilution method; type: functional; conditions: time 16-18 hrs
Escherichia coli = experiment: Antibacterial activity against Escherichia coli ATCC25922 assessed as reduction in microbial growth after 16 to 18 hrs by microbroth dilution method; type: functional; conditions: ATCC 25922, time 16-18 hrs
Staphylococcus aureus [3] = experiment: Antibacterial activity against methicillin resistant Staphylococcus aureus ATCC48966 assessed as reduction in microbial growth after 16 to 18 hrs by microbroth dilution method; type: functional; conditions: time 16-18 hrs
Staphylococcus aureus [4] = experiment: Antibacterial activity against methicillin resistant Staphylococcus aureus ATCC49800 assessed as reduction in microbial growth after 16 to 18 hrs by microbroth dilution method; type: functional; conditions: time 16-18 hrs
Staphylococcus aureus [5] = experiment: Antibacterial activity against Staphylococcus aureus ATCC 25923 assessed as reduction in microbial growth after 16 to 18 hrs by microbroth dilution method; type: functional; conditions: time 16-18 hrs
Enterococcus faecalis = experiment: Antibacterial activity against Enterococcus faecalis ATCC29212 assessed as reduction in microbial growth after 16 to 18 hrs by microbroth dilution method; type: functional; conditions: ATCC 29212, time 16-18 hrs
Staphylococcus aureus [6] = experiment: Antibacterial activity against methicillin resistant Staphylococcus aureus ATCC513045 assessed as reduction in microbial growth after 16 to 18 hrs by microbroth dilution method; type: functional; conditions: time 16-18 hrs
Staphylococcus aureus [7] = experiment: Antibacterial activity against methicillin resistant Staphylococcus aureus ATCC 62202 assessed as reduction in microbial growth after 16 to 18 hrs by microbroth dilution method; type: functional; conditions: time 16-18 hrs
Staphylococcus aureus [8] = experiment: Antibacterial activity against methicillin resistant Staphylococcus aureus ATCC48073 assessed as reduction in microbial growth after 16 to 18 hrs by microbroth dilution method; type: functional; conditions: time 16-18 hrs
L02 = experiment: Cytotoxicity against human L02 cells assessed as cell viability at 10 ug/ml measured after 24 hrs by MTT assay; type: cell-based; conditions: l02, 24 h, dose 10 µg/ml
Pseudomonas aeruginosa = experiment: Antibacterial activity against Pseudomonas aeruginosa ATCC27853 assessed as reduction in microbial growth after 16 to 18 hrs by microbroth dilution method; type: functional; conditions: time 16-18 hrs
Staphylococcus aureus [9] = experiment: Antibacterial activity against methicillin resistant Staphylococcus aureus ATCC515992 assessed as reduction in microbial growth after 16 to 18 hrs by microbroth dilution method; type: functional; conditions: time 16-18 hrs
Staphylococcus aureus [10] = experiment: Antibacterial activity against methicillin resistant Staphylococcus aureus ATCC49008 assessed as reduction in microbial growth after 16 to 18 hrs by microbroth dilution method; type: functional; conditions: time 16-18 hrs
Staphylococcus aureus [11] = experiment: Antibacterial activity against methicillin resistant Staphylococcus aureus ATCC49025 assessed as reduction in microbial growth after 16 to 18 hrs by microbroth dilution method; type: functional; conditions: time 16-18 hrs
RAW264.7 = experiment: Cytotoxicity against mouse RAW264.7 cells assessed as cell viability at 10 ug/ml measured after 24 hrs by MTT assay; type: cell-based; conditions: raw264.7, 24 h, dose 10 µg/ml
Staphylococcus aureus [12] = experiment: Antibacterial activity against methicillin resistant Staphylococcus aureus ATCC 43300 assessed as reduction in microbial growth after 16 to 18 hrs by microbroth dilution method; type: functional; conditions: time 16-18 hrs

Compound	MIC (Staphylococcus aureus [1])	MIC (Staphylococcus aureus [2])	MIC (Escherichia coli)	MIC (Staphylococcus aureus [3])	MIC (Staphylococcus aureus [4])	MIC (Staphylococcus aureus [5])	MIC (Enterococcus faecalis)	MIC (Staphylococcus aureus [6])	MIC (Staphylococcus aureus [7])	MIC (Staphylococcus aureus [8])	Activity (L02)	MIC (Pseudomonas aeruginosa)	MIC (Staphylococcus aureus [9])	MIC (Staphylococcus aureus [10])	MIC (Staphylococcus aureus [11])	Activity (RAW264.7)	MIC (Staphylococcus aureus [12])
CC(C)=CCc1c(OC(C)C)cc(/C=C/c2ccc(F)cc2)c(C(=O)O)c1O	2 mg/L	4 mg/L	> 32 mg/L	4 mg/L	4 mg/L	4 mg/L	> 32 mg/L	8 mg/L	4 mg/L	4 mg/L	Toxic	> 32 mg/L	2 mg/L	4 mg/L	4 mg/L	Toxic	4 mg/L
CC(C)=CCc1c(OC2CCCC2)cc(/C=C/c2ccc(F)cc2)c(C(=O)O)c1O	2 mg/L	4 mg/L	> 32 mg/L	4 mg/L	4 mg/L	2 mg/L	> 32 mg/L	2 mg/L	2 mg/L	4 mg/L	Toxic	> 32 mg/L	2 mg/L	4 mg/L	4 mg/L	Toxic	2 mg/L
CC(C)=CCc1c(OCCCC(F)(F)F)cc(/C=C/c2ccc(C(F)(F)F)cc2)c(C(=O)O)c1O	2 mg/L	4 mg/L	> 32 mg/L	4 mg/L	4 mg/L	2 mg/L	> 32 mg/L	2 mg/L	4 mg/L	4 mg/L	Toxic	> 32 mg/L	2 mg/L	4 mg/L	4 mg/L	Toxic	1 mg/L
CC(C)=CCc1c(OC2CCCCC2)cc(/C=C/c2ccc(F)cc2)c(C(=O)O)c1O	2 mg/L	4 mg/L	> 32 mg/L	4 mg/L	4 mg/L	2 mg/L	> 32 mg/L	2 mg/L	2 mg/L	4 mg/L	Toxic	> 32 mg/L	4 mg/L	4 mg/L	4 mg/L	Toxic	2 mg/L
CCOc1cc(/C=C/c2ccc(C(F)(F)F)cc2)c(C(=O)O)c(O)c1CC=C(C)C	1 mg/L	2 mg/L	> 32 mg/L	2 mg/L	2 mg/L	2 mg/L	> 32 mg/L	2 mg/L	1 mg/L	2 mg/L	Toxic	> 32 mg/L	2 mg/L	2 mg/L	2 mg/L	Toxic	1 mg/L
CC(C)=CCc1c(OCCCCF)cc(/C=C/c2ccc(F)cc2)c(C(=O)O)c1O	4 mg/L	4 mg/L	> 32 mg/L	4 mg/L	4 mg/L	4 mg/L	> 32 mg/L	4 mg/L	4 mg/L	4 mg/L	Toxic	> 32 mg/L	4 mg/L	4 mg/L	4 mg/L	Toxic	4 mg/L
CC1(C)S[C@@H]2[C@H](NC(=O)[C@H](N)c3ccccc3)C(=O)N2[C@H]1C(=O)O [AMPICILLIN]	> 128 mg/L	> 128 mg/L	> 32 mg/L	> 128 mg/L	> 128 mg/L	4 mg/L	> 32 mg/L	> 128 mg/L	> 128 mg/L	> 128 mg/L		> 32 mg/L	> 128 mg/L	> 128 mg/L	> 128 mg/L		> 128 mg/L
CC(C)=CCc1c(OCc2ccccc2)cc(/C=C/c2ccc(C(F)(F)F)cc2)c(C(=O)O)c1O	2 mg/L	4 mg/L	> 32 mg/L	4 mg/L	4 mg/L	4 mg/L	> 32 mg/L	2 mg/L	2 mg/L	4 mg/L	Toxic	> 32 mg/L	2 mg/L	4 mg/L	4 mg/L	Toxic	2 mg/L
CCC(C)Oc1cc(/C=C/c2ccc(F)cc2)c(C(=O)O)c(O)c1CC=C(C)C (stereo not drawn)	2 mg/L	4 mg/L	> 32 mg/L	4 mg/L	4 mg/L	2 mg/L	> 32 mg/L	2 mg/L	2 mg/L	4 mg/L	Toxic	> 32 mg/L	4 mg/L	4 mg/L	4 mg/L	Toxic	2 mg/L
CCn1cc(C(=O)O)c(=O)c2cc(F)c(N3CCNCC3)cc21 [NORFLOXACIN]	2 mg/L	2 mg/L	> 32 mg/L	1 mg/L	1 mg/L	2 mg/L	> 32 mg/L	32 mg/L	2 mg/L	1 mg/L		> 32 mg/L	32 mg/L	1 mg/L	1 mg/L		32 mg/L
GENTAMICIN																	16 mg/L
NC[C@H]1O[C@H](O[C@H]2[C@H](O)[C@@H](O[C@H]3O[C@H](CO)[C@@H](O)[C@H](N)[C@H]3O)[C@H](N)C[C@@H]2N)[C@H](N)[C@@H](O)[C@@H]1O [BEKANAMYCIN]																	128 mg/L
COc1cc(/C=C/c2ccccc2)c(C(=O)O)c(O)c1CC=C(C)C	16 mg/L	8 mg/L	> 32 mg/L	8 mg/L	8 mg/L	8 mg/L	> 32 mg/L	16 mg/L	16 mg/L	8 mg/L		> 32 mg/L	16 mg/L	8 mg/L	8 mg/L		16 mg/L
